What was measured:
Assay in all cases: relative viability (nuclei count vs DMSO), 5 days (fraction); higher = more cells survive
[1] = compound: CCC1=CN=CN=C1N2CCN(CC2)CC3=NC4=C(N3)C=C(C=C4)C(F)(F)F + COc1cc2c(Oc3ccc(NC(=O)C4(C(=O)Nc5ccc(F)cc5)CC4)cc3F)ccnc2cc1OCCCN1CCOCC1 [Foretinib] (partner 0.25 µM)
Procedure, shortened: (§1)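 Each reported value is a median over duplicate plates. It expresses relative viability: treated-well nuclei count divided by vehicle-well nuclei count. Lung cancer cell lines in 1536-well plates were dosed by pin tool a day after seeding, alone with one drug or with a fixed anchor-drug dose plus five library-drug doses (not always all listed) in √10 steps, and nuclei were counted after 5 days.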

[2] = compound: CCC1=CN=CN=C1N2CCN(CC2)CC3=NC4=C(N3)C=C(C=C4)C(F)(F)F + CS(=O)(=O)CCNCc1ccc(-c2ccc3ncnc(Nc4ccc(OCc5cccc(F)c5)c(Cl)c4)c3c2)o1 [Lapatinib] (partner 2 µM)
Procedure, shortened: as §1

[3] = compound: CCn1c(-c2nonc2N)nc2cnc(Oc3cccc(NC(=O)c4ccc(OCCN5CCOCC5)cc4)c3)cc21 + Cc1cc(Nc2cc(N3CCN(C)CC3)nc(Sc3ccc(NC(=O)C4CC4)cc3)n2)n[nH]1 [Tozasertib] (partner 0.1 µM)
Procedure, shortened: as §1

[4] = compound: CCn1c(-c2nonc2N)nc2cnc(Oc3cccc(NC(=O)c4ccc(OCCN5CCOCC5)cc4)c3)cc21 + Nc1ncn([C@H]2C[C@H](O)[C@@H](CO)O2)c(=O)n1 [Decitabine] (partner 2 µM)
Procedure, shortened: as §1

Cell Line	relative viability ([1]; first compound 0.04 µM)	relative viability ([1]; first compound 0.1265 µM)	relative viability ([1]; first compound 0.4 µM)	relative viability ([1]; first compound 1.265 µM)	relative viability ([1]; first compound 4 µM)	relative viability ([2]; first compound 0.04 µM)	relative viability ([2]; first compound 0.1265 µM)	relative viability ([2]; first compound 0.4 µM)	relative viability ([2]; first compound 1.265 µM)	relative viability ([2]; first compound 4 µM)	relative viability ([3]; first compound 0.04 µM)	relative viability ([3]; first compound 0.1265 µM)	relative viability ([3]; first compound 0.4 µM)	relative viability ([3]; first compound 1.265 µM)	relative viability ([3]; first compound 4 µM)	relative viability ([4]; first compound 0.04 µM)	relative viability ([4]; first compound 0.1265 µM)	relative viability ([4]; first compound 0.4 µM)	relative viability ([4]; first compound 1.265 µM)	relative viability ([4]; first compound 4 µM)
LXF-289	1.03	0.949	0.971	0.937	0.934	1	0.853	0.845	0.974	0.899	0.221	0.198	0.195	0.104	0.0834	0.359	0.403	0.353	0.384	0.318
NCI-H23	0.822	0.99	0.961	0.801	0.906	1.2	1.21	0.966	0.982	1.11	0.364	0.34	0.333	0.291	0.322	0.362	0.342	0.334	0.234	0.263
NCI-H322M	1.08	0.907	0.939	0.953	0.925	0.631	0.571	0.575	0.499	0.682	0.481	0.466	0.459	0.366	0.403	0.585	0.63	0.824	0.767	0.648
NCI-H358	0.746	0.626	0.686	0.509	0.651	0.477	0.399	0.428	0.337	0.387	0.0993	0.102	0.116	0.0599	0.0812	0.219	0.273	0.19	0.198	0.161
NCI-H460	1.05	1.03	0.999	1.06	0.964	1.09	0.973	0.878	0.812	0.936	0.563	0.601	0.311	0.036	0.0635	0.515	0.574	0.383	0.245	0.148
NCI-H520	0.795	0.626	0.777	0.588	0.798	0.846	0.862	0.857	0.588	0.729	0.419	0.368	0.359	0.345	0.378	0.611	0.524	0.468	0.347	0.37
NCI-H596	0.861	1.13	0.818		0.966	0.982	1.13	0.927	0.817	1.23	1.24	0.945	0.828	0.743	1.01	1.01	1.04	0.969	0.926	0.932
NCI-H647	1.29	1.12	1.21	1.13	1.41	1.27	1.04		0.802	1.09	0.338	0.267	0.29	0.146	0.0969	0.379	0.426	0.276	0.288	0.347

— the supplement of paper PMC10307832
